Assay results published in US11945822B2, “Pyrazolo-triazine and/or pyrazolo-pxrimidine derivatives as selective inhibitor of cyclin dependent kinase” (QURIENT CO., LTD., priority 2018, dated 2024).

Assays:
[1] = test system: MOLT-4; assay: Cellular MOLT-4 viability assay (CellTiter-Glo, 72 hours); assay type: cell-based; conditions: Homo sapiens, MOLT4 viability assay
Experimental: All cell lines were routinely tested for mycoplasma.
The effect of the CDK7 inhibitor to inhibit the growth of target cancer cells was evaluated through the 72 hours time period of viability assay. Briefly, the candidate cell line ware plated in 96 well plate at the following density of cells respectively. […] DMSO solvent without compound served as a control and final DMSO concentration less than 0.1%. After 72 hours of incubation at 37° C., 5% CO2 incubator, cells were analyzed for the viability using the CellTiter-Glo Luminescent Cell Viability Assay (Promega, Cat #G7570). All viability assays were performed in duplicate and Luminescence was read using an Envision (Perkin Elmer, USA). Data was analyzed using XLfit software.

[2] = target: T1, CDK5/p25 (Homo sapiens, UniProt Q00535); assay: Enzymatic assay for CDK5 (FRET based LANCE Ultra kinase assay); assay type: biochemical; conditions: read-out: CDK5 enzymatic activity (IC50 range)
T1 construct: purchased Invitrogen PR8543B
T1 sequence (Q00535 whole entry): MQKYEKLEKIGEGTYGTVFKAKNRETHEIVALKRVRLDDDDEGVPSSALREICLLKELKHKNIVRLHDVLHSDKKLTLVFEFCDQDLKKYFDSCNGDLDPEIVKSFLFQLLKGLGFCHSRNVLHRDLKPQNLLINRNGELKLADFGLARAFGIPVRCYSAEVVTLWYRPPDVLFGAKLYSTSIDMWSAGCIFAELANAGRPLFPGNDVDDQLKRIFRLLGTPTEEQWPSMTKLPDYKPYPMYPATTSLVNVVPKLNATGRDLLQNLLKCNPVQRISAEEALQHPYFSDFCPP
T1 sequence (Q15078 99-307 partner limits assumed): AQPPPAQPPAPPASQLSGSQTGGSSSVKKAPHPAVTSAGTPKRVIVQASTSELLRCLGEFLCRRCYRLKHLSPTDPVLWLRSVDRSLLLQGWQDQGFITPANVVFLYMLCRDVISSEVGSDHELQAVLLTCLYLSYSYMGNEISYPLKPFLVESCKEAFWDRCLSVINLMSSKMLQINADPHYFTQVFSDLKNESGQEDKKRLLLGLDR
Summary of the method: (§1)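 LANCE Ultra TR-FRET: ULight-MBP peptide (68 nM) with ATP at Km, […], 60 min at 23° C. EDTA plus Eu-anti-phospho-MBP added, another 60 min, then 665/615 nm emission read. Compounds tested as 8-dose 4-fold DMSO dilutions.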

[3] = target: T2, CDK2/Cyclin A (Homo sapiens, UniProt P24941); assay: Enzymatic assay for CDK2 (FRET based LANCE Ultra kinase assay); assay type: biochemical; conditions: read-out: CDK2 enzymatic activity (IC50 range)
T2 construct: purchased Invitrogen PV6290
Summary of the method: as §1

[4] = target: T3, CDK1/Cyclin B (Homo sapiens, UniProt P06493); assay: Enzymatic assay for CDK1 (FRET based LANCE Ultra kinase assay); assay type: biochemical; conditions: read-out: CDK1 enzymatic activity (IC50 range)
T3 construct: purchased Invitrogen PR4768C
T3 sequence (P06493 whole entry): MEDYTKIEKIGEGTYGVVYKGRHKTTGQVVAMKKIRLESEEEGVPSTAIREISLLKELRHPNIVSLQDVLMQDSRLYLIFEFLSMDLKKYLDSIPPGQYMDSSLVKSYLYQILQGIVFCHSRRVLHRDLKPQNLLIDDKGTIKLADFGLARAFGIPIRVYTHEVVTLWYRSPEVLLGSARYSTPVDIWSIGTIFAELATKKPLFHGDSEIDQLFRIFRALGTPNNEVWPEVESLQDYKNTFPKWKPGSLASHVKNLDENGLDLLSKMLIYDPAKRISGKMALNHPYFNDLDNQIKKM
T3 sequence (P14635 whole entry partner): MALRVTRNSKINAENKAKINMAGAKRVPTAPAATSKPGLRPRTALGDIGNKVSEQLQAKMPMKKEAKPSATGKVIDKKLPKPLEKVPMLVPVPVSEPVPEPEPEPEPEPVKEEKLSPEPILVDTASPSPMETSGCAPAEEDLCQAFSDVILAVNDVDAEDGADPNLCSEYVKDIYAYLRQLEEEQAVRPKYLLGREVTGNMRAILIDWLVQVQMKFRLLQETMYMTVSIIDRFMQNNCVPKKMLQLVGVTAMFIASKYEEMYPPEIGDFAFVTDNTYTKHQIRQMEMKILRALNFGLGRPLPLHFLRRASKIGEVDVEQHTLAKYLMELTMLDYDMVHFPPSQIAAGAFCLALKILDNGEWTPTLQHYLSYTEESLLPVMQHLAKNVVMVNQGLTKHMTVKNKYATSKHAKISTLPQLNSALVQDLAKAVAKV
Summary of the method: as §1

[5] = target: T4, CDK7/Cyclin H/MNAT1 (Homo sapiens, UniProt P50613); assay: Enzymatic assay for CDK7 (FRET based LANCE Ultra kinase assay); assay type: biochemical; conditions: for IC50: read-out: CDK7 enzymatic activity (IC50 range)
T4 construct: purchased Invitrogen PR6749B
T4 sequence (P50613 whole entry): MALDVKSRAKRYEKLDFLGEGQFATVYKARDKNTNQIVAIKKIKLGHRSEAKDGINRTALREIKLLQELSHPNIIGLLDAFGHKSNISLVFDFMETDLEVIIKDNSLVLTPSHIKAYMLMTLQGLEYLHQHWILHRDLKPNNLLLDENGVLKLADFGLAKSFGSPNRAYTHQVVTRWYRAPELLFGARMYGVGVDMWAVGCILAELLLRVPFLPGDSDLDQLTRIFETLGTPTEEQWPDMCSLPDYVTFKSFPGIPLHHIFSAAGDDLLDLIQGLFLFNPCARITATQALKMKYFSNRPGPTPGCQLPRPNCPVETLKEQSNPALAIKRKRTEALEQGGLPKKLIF
T4 sequence (P51946 whole entry partner): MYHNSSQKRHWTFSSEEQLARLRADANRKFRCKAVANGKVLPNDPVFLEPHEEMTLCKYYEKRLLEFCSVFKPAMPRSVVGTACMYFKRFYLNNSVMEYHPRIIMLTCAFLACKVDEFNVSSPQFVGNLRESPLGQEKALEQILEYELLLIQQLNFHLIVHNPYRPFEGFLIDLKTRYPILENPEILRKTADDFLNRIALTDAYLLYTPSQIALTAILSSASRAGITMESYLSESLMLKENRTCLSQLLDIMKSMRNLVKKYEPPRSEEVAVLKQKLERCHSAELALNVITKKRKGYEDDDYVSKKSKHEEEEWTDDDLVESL
T4 sequence (P51948 whole entry partner): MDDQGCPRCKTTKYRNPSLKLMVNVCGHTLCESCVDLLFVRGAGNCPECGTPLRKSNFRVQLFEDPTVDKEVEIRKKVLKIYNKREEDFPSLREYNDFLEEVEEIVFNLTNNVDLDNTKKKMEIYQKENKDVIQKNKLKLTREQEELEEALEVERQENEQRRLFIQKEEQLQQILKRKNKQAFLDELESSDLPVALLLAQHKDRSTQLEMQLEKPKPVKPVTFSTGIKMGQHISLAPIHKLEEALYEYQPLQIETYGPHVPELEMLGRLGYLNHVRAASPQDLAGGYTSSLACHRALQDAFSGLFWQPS
Summary of the method: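 Inhibition was measured at Km ATP by time-resolved FRET between a Eu anti-phospho antibody and a phosphorylated ULight peptide. The enzyme was the purified CDK7/cyclin complex, and data were curve-fitted.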

[6] = test system: H460; assay: Cellular H460 viability assay (CellTiter-Glo, 72 hours); assay type: cell-based; conditions: Homo sapiens, NCI-H460
Summary of the method: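 Mycoplasma-tested cells, seeded at densities chosen for each line, received compound or DMSO vehicle (under 0.1% final) for 72 hours. Duplicate cultures were then read for viability by CellTiter-Glo luminescence.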

SMILES	IC50 [1] [nM]	IC50 [2] [nM]	IC50 [3] [nM]	IC50 [4] [nM]	CDK1/CDK7: Selectivity of CDK7 inhibition over CDK1 inhibition [5]	CDK2/CDK7: Selectivity of CDK7 inhibition over CDK2 inhibition [5]	CDK5/CDK7: Selectivity of CDK7 inhibition over CDK5 inhibition [5]	IC50 [5] [nM]	IC50 [6] [nM]
CC(C)c1cnn2c(NCc3ccccc3Oc3cccc(NC(=O)CCCN(C)C)c3)nc(N3CCC(N)CC3)nc12 [Compound 82]	1000 to 10000	–	–	–	–	–	–	–	–
NC1CCN(c2nc(NCc3ccccc3-n3cccn3)n3ncc(I)c3n2)CC1 [Compound 36]	1000 to 10000	< 100	100 to 1000	100 to 1000	B (B=less than 200 fold, but greater than 20 fold)	C (C=less than 20 fold)	C (C=less than 20 fold)	< 100	–
NC1CCN(c2nc(NCc3ccccc3-n3cccn3)n3ncc(F)c3n2)CC1 [Compound 37]	> 10000	–	–	–	–	–	–	–	–
CC(C)c1cnn2c(NCc3cccc(N4CCN(C(=O)CCCN(C)C)CC4)c3)nc(N3CCC(N)CC3)nc12 [Compound 85]	> 10000	–	–	–	–	–	–	–	–
CC(C)c1cnn2c(NCc3ccccc3-n3cccn3)nc(Nc3ccc(C4CCNCC4)cn3)nc12 [Compound 169]	1000 to 10000	> 1000	> 1000	> 1000	A (A=greater than 200 fold)	B (B=less than 200 fold, but greater than 20 fold)	B (B=less than 200 fold, but greater than 20 fold)	< 100	–
CC(C)c1cnn2c(NCc3cccc(N4CCN(C)CC4)c3)nc(N3CCC(N)CC3)nc12 [Compound 83]	1000 to 10000	100 to 1000	100 to 1000	> 1000	A (A=greater than 200 fold)	A (A=greater than 200 fold)	B (B=less than 200 fold, but greater than 20 fold)	< 100	–
CC(C)c1cnn2c(NCc3cccc(Oc4ccc(Cl)c(NC(=O)CCCN(C)C)c4)c3)nc(N3CCC(N)CC3)nc12 [Compound 94]	1000 to 10000	100 to 1000	100 to 1000	100 to 1000	A (A=greater than 200 fold)	B (B=less than 200 fold, but greater than 20 fold)	B (B=less than 200 fold, but greater than 20 fold)	< 100	–
CC(C)c1cnn2c(NCc3ccccc3-c3ccc4ccccc4[n+]3[O-])nc(N3CCC(N)CC3)nc12 [Compound 81]	> 10000	> 1000	> 1000	> 1000	A (A=greater than 200 fold)	A (A=greater than 200 fold)	A (A=greater than 200 fold)	< 100	–
CC(C)c1cnn2c(NCc3cccc(Oc4cccc(NC(=O)CCCN(C)C)c4)c3)nc(N3CCC(N)CC3)nc12 [Compound 84]	1000 to 10000	–	–	–	–	–	–	–	–
NC1CCN(c2nc(NCc3ccccc3-n3cccn3)n3ncc(C(F)(F)F)c3n2)CC1 [Compound 41]	> 10000	–	–	–	–	–	–	–	< 1000
CC(C)c1cnn2c(NCc3ncccc3-n3cccn3)nc(N3CCC(N)CC3)nc12 [Compound 5]	> 10000	–	–	–	–	–	–	–	1000 to 10000
CC(C)c1cnn2c(NCc3ccccc3Oc3ccc(NC(=O)CCCN(C)C)cc3)nc(N3CCC(N)CC3)nc12 [Compound 91]	1000 to 10000	100 to 1000	100 to 1000	100 to 1000	A (A=greater than 200 fold)	B (B=less than 200 fold, but greater than 20 fold)	B (B=less than 200 fold, but greater than 20 fold)	< 100	–
